# Like-named read-outs stand apart in the source and are kept apart here.
# Assays:
# [1] = biological target: T1, human glutathione S-transferase P1-1 (GSTP1-1) (Homo sapiens, UniProt P09211); assay: CDNB assay of GST activity and inhibition, GST P1-1; assay type: biochemical; settings: first value of the cell GSTP1-1/GSTA1-1; CDNB assay, 20 nM GST
# T1 construct: made in house; host or cells: E. coli
# Procedure: (§1) GST isozymes. […] The enzyme was incubated with 10 mM dithiothreitol to ensure complete reduction of cysteine residues, followed by extensive dialysis to remove the reducing agent. […] Plasmodium GST (pGST) was a gift from Dr. Katja Becker (Justus Liebig University of Giessen), and murine GSTP and GSTA were gifts from Dr. Dave Eaton (University of Washington). Except where otherwise stated (i.e. testing of pGST in Example 6.4.5 and testing of murine GSTs in Example 6.4.7), GST isozymes tested were from human.
# (§2) GST assays. Assays of GST activity and inhibition were performed with chloro-2,4-dinitrobenzene (CDNB) as the electrophilic substrate. Except where otherwise stated, GST concentration was 20 nM. […] Rates were determined by measuring absorption at 340 nm (λmax of glutathione-dinitrobenzene) for 1 minute on a Beckman DU 7400 spectrophotometer. For IC50 determinations, assays were performed at inhibitor concentrations ranging over at least […] (from 100-fold above the IC50 to 100-fold below). Data were fit to a sigmoidal dose-response function using GraphPad Prism to determine the 50% inhibitory concentration.
# [2] = biological target: T2, human glutathione S-transferase A1-1 (GSTA1-1) (Homo sapiens, UniProt P08263); assay: CDNB assay of GST activity and inhibition, GST A1-1; assay type: biochemical; settings: second value of the cell GSTP1-1/GSTA1-1, 20 nM GST
# T2 construct: made in house; host or cells: E. coli
# T2 sequence (P08263 1-222): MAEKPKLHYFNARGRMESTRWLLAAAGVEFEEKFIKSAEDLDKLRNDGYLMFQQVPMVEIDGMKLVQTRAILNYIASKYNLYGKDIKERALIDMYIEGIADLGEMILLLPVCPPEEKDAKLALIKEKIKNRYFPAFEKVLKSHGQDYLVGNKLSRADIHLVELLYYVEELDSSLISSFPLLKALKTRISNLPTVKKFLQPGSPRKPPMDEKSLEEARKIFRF
# Procedure: as §1, §2
# [3] = biological target: T3, Plasmodium GST (pGST) (Plasmodium falciparum, UniProt Q8ILQ7); assay: CDNB assay, Plasmodium GST; assay type: biochemical
# T3 construct: gift from Dr. Katja Becker (Justus Liebig University of Giessen)
# T3 sequence (Q8ILQ7 1-211): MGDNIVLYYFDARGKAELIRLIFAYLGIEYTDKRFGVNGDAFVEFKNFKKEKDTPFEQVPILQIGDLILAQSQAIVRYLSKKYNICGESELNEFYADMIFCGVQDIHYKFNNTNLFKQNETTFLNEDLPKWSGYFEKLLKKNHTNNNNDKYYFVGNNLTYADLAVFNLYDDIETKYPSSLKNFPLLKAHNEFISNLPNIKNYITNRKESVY
# Procedure: as §1, §2
# The IC50 values for pGST were determined for the bivalent compounds from Tables III and IV using the CDNB assay.
# [4] = biological target: T4, murine GSTP (Mus musculus, UniProt P19157); assay: CDNB assay, murine GSTP; assay type: biochemical
# T4 construct: gift from Dr. Dave Eaton (University of Washington)
# T4 sequence (P19157 2-210 limits assumed): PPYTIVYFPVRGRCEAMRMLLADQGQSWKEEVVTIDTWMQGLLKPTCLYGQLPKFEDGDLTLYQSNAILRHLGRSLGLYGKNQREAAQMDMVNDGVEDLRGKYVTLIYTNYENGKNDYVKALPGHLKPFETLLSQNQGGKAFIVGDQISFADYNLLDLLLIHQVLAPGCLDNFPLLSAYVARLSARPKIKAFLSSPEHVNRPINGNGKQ
# Procedure: as §1, §2
# [5] = system: chloroquine resistant Plasmodium falciparum strain Dd2; assay: Parasite growth inhibition, ring stages, 48 hours; assay type: cell-based; settings: single dose, strain Dd2, 48 hours
# Procedure: (§3) A single dose of compound IVg^ was added to ring stages of chloroquine resistant Plasmodium falciparum strain Dd2 and incubated for 48 hours. […] An isobologram analysis was performed in two different chloroquine resistant parasites comparing IVg^ with chloroquine (AN143 with a PNG/South America genotype and INDO21 with the Indonesia genotype).
# [6] = system: chloroquine resistant parasites AN143 and INDO21; assay: Isobologram analysis with chloroquine; assay type: cell-based, Plasmodium falciparum
# Procedure: as §3
# [7] = system: human kidney 293 fibroblasts transfected with the IRES vector (no GST P1-1); assay: Cell killing by hypericin photodynamic treatment, IRES vector control cells; assay type: cell-based
# Procedure: (§4) Cells used in the assay were human kidney 293 fibroblasts transfected with the IRES vector plus and minus the coding region for human GST P1-1. Cells were cultured in DMEM supplemented with 10% FBS and 1% penicillin-streptomycin and maintained at 37° C. and 5% CO2.
# (§5) Once the cells reached 80% confluency, the original media was removed and replaced with either (a) fresh media alone; (b) fresh media containing 1 uM hypericin (a porphyrin analogue employed in photodynamic cancer therapy), (c) the desired concentration of GST inhibitor IVg^, and (d) 1 μM hypericin plus the inhibitor 1 μM IVg^. The cells were incubated for a further 24 hours, in the dark, to allow the hypericin to be incorporated. The media from each plate was then removed and placed into a corresponding 15 ml centrifuge tube. This media is saved to monitor the “floater” cells that may have sloughed off during manipulations and treatment. The attached cells were washed two times with 1×PBS and fresh media is added back to the plates. The plates which were incubated overnight in the presence of hypericin were overlayed with DMEM without the phenol red indicator dye or 1×PBS supplemented with 10% FBS. […]
# (§6) Following light treatment, cells were trypsinized, removed to their corresponding 15 ml tubes and maintained on ice until analyzed via flow cytometry.
# [8] = system: human kidney 293 fibroblasts overexpressing human GST P1-1; assay: Cell killing by hypericin photodynamic treatment, GST P1-1 overexpressing cells; assay type: cell-based; settings: GSTP cells
# Procedure: as §4, §5, §6
# [9] = system: human kidney 293 fibroblasts; assay: IC50 of the bivalent inhibitor alone in the cell line; assay type: cell-based; settings: +/−0.2 SD, read-out: IC50 of inhibitor for the cells
# Procedure: as §4
# Once the cells reached 80% confluency, the original media was removed and replaced with either (a) fresh media alone; (b) fresh media containing 1 uM hypericin (a porphyrin analogue employed in photodynamic cancer therapy), (c) the desired concentration of GST inhibitor IVg^, and (d) 1 μM hypericin plus the inhibitor 1 μM IVg^. The cells were incubated for a further 24 hours, in the dark, to allow the hypericin to be incorporated. The media from each plate was then removed and placed into a corresponding 15 ml centrifuge tube. This media is saved to monitor the “floater” cells that may have sloughed off during manipulations and treatment. The attached cells were washed two times with 1×PBS and fresh media is added back to the plates. The plates which were incubated overnight in the presence of hypericin were overlayed with DMEM without the phenol red indicator dye or 1×PBS supplemented with 10% FBS.
# as §6
# [10] = biological target: T5, GSTA1-1 (Homo sapiens, UniProt P08263); assay: GSH conjugation assay, absorbance changes at 270 nm, GSTA1-1; assay type: biochemical; settings: absorbance at 270 nm
# T5 construct: made in house; host or cells: E. coli
# T5 sequence (P08263 1-222): T2 sequence (P08263 1-222)
# Text: (§7) Since EA is known to be enzymatically conjugated to GSH by GSTs, these bivalent inhibitors might be predicted to be potential substrates for GSTA1-1 or GSTP1-1, such that they would also be catalytically conjugated with GSH.
# [11] = biological target: T6, GSTP1-1 (Homo sapiens, UniProt P09211); assay: GSH conjugation assay, absorbance changes at 270 nm, GSTP1-1; assay type: biochemical; settings: absorbance at 270 nm
# T6 construct: made in house; host or cells: E. coli
# T6 sequence (P09211 2-210 limits assumed): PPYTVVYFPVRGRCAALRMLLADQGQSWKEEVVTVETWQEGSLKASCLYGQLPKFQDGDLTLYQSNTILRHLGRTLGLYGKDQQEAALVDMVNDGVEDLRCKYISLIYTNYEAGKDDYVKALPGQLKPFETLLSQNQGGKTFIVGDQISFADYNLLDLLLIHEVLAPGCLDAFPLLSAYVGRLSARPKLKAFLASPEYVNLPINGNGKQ
# Text: as §7
# [12] = biological target: T2, human glutathione S-transferase A1-1 (GSTA1-1); settings: from the prior art (Ploemen et al.); cited from earlier work
# [13] = CDNB assay, read-out: IC50 pGST
# [14] = 1 μM inhibitor + 1 μM hypericin + 590 nm light
# [15] = 1 uM hypericin + 590 nm light, no inhibitor
# T1 sequence (P09211 2-210 limits assumed): as above
SMILES,IC50 [1],IC50 [2],"IC50 [3, 13]",IC50 [4],GSH conjugation by GSTA1-1 [10],also measured
C=C(CC)C(=O)c1ccc(OCC(=O)NCCCCCC(=O)NCc2cccc(CNC(=O)CCCCCNC(=O)COc3ccc(C(=O)C(=C)CC)c(Cl)c3Cl)c2)c(Cl)c1Cl [IVg^],27 nM,64 nM,~1500 nM,18 nM,–,"EC50 [5]: 412 nM; synergy with chloroquine [6]: No evidence of synergy; Mean % Cell Death [7, 14]: 20.27%; Mean % Cell Death [8, 14]: 22.53%; IC50 [9]: 1130 nM"
C=C(CC)C(=O)c1ccc(OCC(=O)NCCCCCC(=O)NCc2cc(CNC(=O)CCCCCNC(=O)COc3ccc(C(=O)C(=C)CC)c(Cl)c3Cl)cc(C(N)=O)c2)c(Cl)c1Cl [IVg],46.1 nM,40.2 nM,~3300 nM,–,no GSH conjugation,GSH conjugation by GSTP1-1 [11]: no GSH conjugation
"C=C(CC)C(=O)c1ccc(OCC(=O)O)c(Cl)c1Cl [IVk*, ethacrynic acid, reference compound]",–,–,–,–,readily conjugated to GSH,IC50 [12]: 5000 nM
C=C(CC)C(=O)c1ccc(OCC(=O)NCCCC(=O)NCCCC(=O)NCCCC(=O)NCc2cc(CNC(=O)CCCNC(=O)CCCNC(=O)CCCNC(=O)COc3ccc(C(=O)C(=C)CC)c(Cl)c3Cl)cc(C(N)=O)c2)c(Cl)c1Cl [IVi],142 nM,96.5 nM,–,–,–,IC50 [3]: ~5500 nM
C=C(CC)C(=O)c1ccc(OCC(=O)NCc2cccc(CNC(=O)COc3ccc(C(=O)C(=C)CC)c(Cl)c3Cl)c2)c(Cl)c1Cl [IVc^],995 nM,25 nM,–,990 nM,–,–
"Cc1cc(O)c2c(=O)c3c(O)cc(O)c4c5c(O)cc(O)c6c(=O)c7c(O)cc(C)c8c1c2c(c34)c(c78)c65 [hypericin, reference compound]",–,–,–,–,–,"Mean % Cell Death [7, 15]: 24.63%; Mean % Cell Death [8, 15]: 11.27%"
